We go through 11 compounds from ChEMBL document CHEMBL1201862, “PubChem BioAssay data set” (2004).

The test system of test [1] is MDCK. Put plainly: MDCK cell cytotoxicity, dose response, cytotoxicity control (AID 540296). In kind it is functional. Particulars: Canis lupus familiaris.
Test [2] deals with MDCK. Description: antiviral activity against H1N1 influenza, dose response, cell-based, strain KY136 (AID 540257). In kind it is functional. Particulars: Canis lupus familiaris.
The next test relates to Vero. Description: Vero E6 cell cytotoxicity, dose response, cytotoxicity control (AID 540298). In kind it is functional. Conditions: Chlorocebus sabaeus.
The target of a further test is Keap1/Nrf2 (Homo sapiens, UniProt Q14145). Description: disruptors of Keap1 binding to Nrf2 peptide – biochemical, fluorescence polarization, cherry-picked samples, dose response (AID 588683). For orientation: In fluorescence polarisation assays a small probe gives low polarisation when free and higher when bound to something large.
Sequence of Keap1/Nrf2 (Q16236 whole entry): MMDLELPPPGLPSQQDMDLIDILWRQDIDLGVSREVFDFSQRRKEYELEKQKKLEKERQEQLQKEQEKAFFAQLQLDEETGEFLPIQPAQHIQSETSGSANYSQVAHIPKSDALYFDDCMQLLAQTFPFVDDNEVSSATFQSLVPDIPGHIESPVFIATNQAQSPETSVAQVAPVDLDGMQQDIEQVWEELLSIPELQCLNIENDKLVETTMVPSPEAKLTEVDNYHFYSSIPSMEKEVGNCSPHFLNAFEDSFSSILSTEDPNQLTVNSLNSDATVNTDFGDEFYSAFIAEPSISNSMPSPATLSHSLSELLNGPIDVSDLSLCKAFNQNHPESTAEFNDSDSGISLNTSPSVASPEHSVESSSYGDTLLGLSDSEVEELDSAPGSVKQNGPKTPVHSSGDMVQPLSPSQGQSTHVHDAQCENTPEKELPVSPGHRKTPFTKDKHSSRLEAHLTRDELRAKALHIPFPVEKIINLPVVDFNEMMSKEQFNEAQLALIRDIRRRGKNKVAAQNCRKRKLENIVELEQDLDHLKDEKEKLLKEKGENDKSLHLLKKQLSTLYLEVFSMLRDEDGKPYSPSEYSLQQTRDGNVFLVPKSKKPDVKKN
Sequence of Keap1/Nrf2 (Q14145 whole entry): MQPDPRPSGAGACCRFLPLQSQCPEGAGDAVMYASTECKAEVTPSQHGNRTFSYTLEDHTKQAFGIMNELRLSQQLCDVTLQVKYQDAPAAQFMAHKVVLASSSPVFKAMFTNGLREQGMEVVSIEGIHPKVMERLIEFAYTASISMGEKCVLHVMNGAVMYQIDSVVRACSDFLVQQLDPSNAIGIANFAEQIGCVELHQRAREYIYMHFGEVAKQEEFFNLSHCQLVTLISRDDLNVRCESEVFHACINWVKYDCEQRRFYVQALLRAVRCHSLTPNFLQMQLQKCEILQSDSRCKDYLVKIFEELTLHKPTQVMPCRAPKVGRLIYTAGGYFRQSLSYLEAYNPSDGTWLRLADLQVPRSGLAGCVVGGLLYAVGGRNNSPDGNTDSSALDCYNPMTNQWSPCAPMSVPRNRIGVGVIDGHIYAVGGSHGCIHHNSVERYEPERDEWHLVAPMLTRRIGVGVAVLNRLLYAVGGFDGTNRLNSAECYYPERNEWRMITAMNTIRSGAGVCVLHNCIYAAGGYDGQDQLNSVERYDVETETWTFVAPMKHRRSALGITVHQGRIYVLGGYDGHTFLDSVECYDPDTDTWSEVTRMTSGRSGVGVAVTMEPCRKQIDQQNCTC
In the next test the target is NS3 (Hepatitis C virus, UniProt A3EZJ3). Put plainly: PubChem AID 2173. Also on record: species or system Hepacivirus hominis.
Sequence of NS3 (A3EZJ3 whole entry): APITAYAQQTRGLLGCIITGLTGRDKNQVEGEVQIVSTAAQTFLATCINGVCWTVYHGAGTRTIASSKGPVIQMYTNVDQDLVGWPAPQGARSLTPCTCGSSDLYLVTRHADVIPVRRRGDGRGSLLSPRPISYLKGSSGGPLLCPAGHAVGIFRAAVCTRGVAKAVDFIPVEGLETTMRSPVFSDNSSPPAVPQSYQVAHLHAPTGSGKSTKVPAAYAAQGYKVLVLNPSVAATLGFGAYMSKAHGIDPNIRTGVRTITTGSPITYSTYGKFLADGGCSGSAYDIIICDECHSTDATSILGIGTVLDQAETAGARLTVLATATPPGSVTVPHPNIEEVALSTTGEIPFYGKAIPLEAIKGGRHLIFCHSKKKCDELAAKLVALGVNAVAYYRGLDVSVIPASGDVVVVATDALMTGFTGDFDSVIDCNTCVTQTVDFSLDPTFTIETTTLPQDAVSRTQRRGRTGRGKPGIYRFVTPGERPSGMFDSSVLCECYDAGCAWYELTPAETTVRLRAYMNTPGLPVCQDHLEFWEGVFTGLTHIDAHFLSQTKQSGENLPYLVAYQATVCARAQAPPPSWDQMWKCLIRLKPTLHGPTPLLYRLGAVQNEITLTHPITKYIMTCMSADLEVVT
Test [3] is described as follows: Late-stage probe development counterscreen for inhibitors of the Hepatitis C Virus non-structural protein 3 helicase (NS3): luminescence-based cell-based dose response assay to determine whether compounds that inhibit replication of HCV RNA replicon are cytotoxic. [Related pubchem assays (depositor defined):AID1800, AID1830, AID1845, AID1943, AID1945, AID2172, AID2173, AID2474, AID2476]. In kind it is functional. (A counterscreen serves to expose hits that act by an unwanted route or on another target.)

The target in test [4] is Luciferin 4-monooxygenase (Photuris pensylvanica, UniProt Q27757). Put plainly: inhibition of Cell Titer Glo luciferase signal – biochemical, luminescence, cherry-picks, counter-screen for HSF-1 reporter inhibitor project, dose response (AID 588847). On the technique in general: Cellular ATP, detected with luciferase, serves as a proxy for viable cell number.
The target in test [5] is Heat shock protein HSP 90-alpha (Homo sapiens, UniProt P07900). Description: Luminescence-based dose response biochemical high throughput screening assay for inhibitors of the Heat Shock Protein 90 (HSP90). [Related pubchem assays: 1831 (Summary AID.), 1846 (Confirmation screen.), 1789 (Primary screen.)].
The target of test [6] is Beta-adrenergic receptor kinase 1 (Homo sapiens, UniProt P25098). Put plainly: blockers of aptamer binding to GRK2 – biochemical, flow cytometry beads, FAM-aptamer, powder set 1, dose response (AID 588720).
Sequence of Beta-adrenergic receptor kinase 1 (P25098 whole entry): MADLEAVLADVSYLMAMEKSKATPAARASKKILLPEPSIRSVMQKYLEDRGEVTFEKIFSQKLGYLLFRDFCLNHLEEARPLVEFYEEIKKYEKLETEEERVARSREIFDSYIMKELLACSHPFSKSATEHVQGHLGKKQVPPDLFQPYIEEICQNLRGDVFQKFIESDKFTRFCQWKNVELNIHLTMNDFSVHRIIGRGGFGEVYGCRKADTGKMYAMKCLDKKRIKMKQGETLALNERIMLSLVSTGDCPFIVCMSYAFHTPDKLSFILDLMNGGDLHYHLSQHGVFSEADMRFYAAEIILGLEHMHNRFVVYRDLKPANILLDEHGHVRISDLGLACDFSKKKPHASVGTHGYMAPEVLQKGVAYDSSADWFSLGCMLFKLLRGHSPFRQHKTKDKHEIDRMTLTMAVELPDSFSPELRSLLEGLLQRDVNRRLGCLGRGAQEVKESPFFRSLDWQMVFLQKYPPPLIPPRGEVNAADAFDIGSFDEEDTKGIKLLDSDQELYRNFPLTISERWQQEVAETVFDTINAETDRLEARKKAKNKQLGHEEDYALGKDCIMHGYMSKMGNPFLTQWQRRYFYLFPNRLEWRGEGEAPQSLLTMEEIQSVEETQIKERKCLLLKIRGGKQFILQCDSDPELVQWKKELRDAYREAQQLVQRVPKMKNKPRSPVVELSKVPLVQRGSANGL
Test [7] concerns Candida albicans. Put plainly: fluconazole-resistant Candida strain growth inhibitors – CaCi-8 strain, dry powder, set 4, dose response (AID 488950). In kind it is functional, organism-based.
Test [8] relates to Candida albicans. Description: antifungal activity against resistant Candida strain – CaCi-8, fluconazole, Alamar Blue, dry powder, dose response (AID 488807). In kind it is functional, organism-based.
The subject of a further test is NIH3T3. Description: mammalian cell viability counter-check – Alamar Blue, fluconazole, dry powder, cytotoxicity control for antifungal drug resistance project, dose response (AID 488809). In kind it is functional, cell-based. Conditions: Mus musculus.
Test [9] deals with Dual specificity protein kinase CLK1 (Homo sapiens, UniProt P49759). Put plainly: inhibition of human CLK1 activity – biochemical, cherry-picked samples, selectivity assay for Dyrk1A inhibitor project, dose response (AID 588811).
Test [10] addresses Cyclin-dependent kinase 2 (Homo sapiens, UniProt P24941). Description: inhibition of human CDK2/cyclin A – biochemical, cherry-picked samples, selectivity assay for Dyrk1A inhibitor project, dose response (AID 602127).
Test [11] deals with INS1. Description: INS-1E mitochondrial potential rescue under cytokines – cell-based, JC-1 fluorescence ratio, dry powder, dose response (AID 488931). In kind it is functional. Conditions: Rattus norvegicus.
Test [12] has as its system INS1. Put plainly: beta-cell survival under cytokine stress – INS-1E, ATP luminescence, dry powder, dose response (AID 488844). In kind it is functional, cell-based. Conditions: Rattus norvegicus.
The target in test [13] is T1, Short transient receptor potential channel 4 (Mus musculus, UniProt Q9QUQ5).
T1 sequence (Q9QUQ5 whole entry): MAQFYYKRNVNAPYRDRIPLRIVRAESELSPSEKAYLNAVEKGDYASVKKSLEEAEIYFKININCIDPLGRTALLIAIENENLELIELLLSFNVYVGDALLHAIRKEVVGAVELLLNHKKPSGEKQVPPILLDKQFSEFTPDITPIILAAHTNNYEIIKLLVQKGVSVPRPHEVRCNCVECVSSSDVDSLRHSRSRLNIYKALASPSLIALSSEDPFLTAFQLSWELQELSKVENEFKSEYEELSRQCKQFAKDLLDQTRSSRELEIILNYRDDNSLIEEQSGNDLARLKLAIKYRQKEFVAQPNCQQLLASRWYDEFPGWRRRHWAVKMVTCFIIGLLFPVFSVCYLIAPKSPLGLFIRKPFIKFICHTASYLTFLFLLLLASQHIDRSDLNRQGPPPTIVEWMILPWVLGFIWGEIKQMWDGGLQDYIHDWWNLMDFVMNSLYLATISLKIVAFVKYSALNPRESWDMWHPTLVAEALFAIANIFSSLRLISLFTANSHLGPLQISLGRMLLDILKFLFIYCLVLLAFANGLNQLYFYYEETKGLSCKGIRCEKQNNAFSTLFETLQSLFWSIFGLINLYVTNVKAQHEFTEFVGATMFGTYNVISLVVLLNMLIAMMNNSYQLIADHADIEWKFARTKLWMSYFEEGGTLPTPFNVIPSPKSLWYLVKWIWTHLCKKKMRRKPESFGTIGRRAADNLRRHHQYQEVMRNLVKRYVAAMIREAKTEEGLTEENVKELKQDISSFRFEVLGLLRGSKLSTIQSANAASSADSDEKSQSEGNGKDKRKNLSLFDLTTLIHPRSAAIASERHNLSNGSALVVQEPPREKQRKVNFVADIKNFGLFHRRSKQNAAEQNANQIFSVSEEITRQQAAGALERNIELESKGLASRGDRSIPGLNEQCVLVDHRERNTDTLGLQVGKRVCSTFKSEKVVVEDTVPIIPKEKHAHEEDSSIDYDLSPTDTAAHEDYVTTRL
Description: SAR Analysis for the identification of selective inhibits of the transient receptor potential cation channel C4 (TRPC4): Automated Electrophysiology. [Related pubchem assays (depositor defined):AID2256]. In kind it is functional.

Test [14] addresses Short transient receptor potential channel 6 (Mus musculus, UniProt Q61143). Description: mouse TRPC6 channel blockers, concentration series – HEK293 cells, membrane potential dye, IC50, selectivity assay for selective TRPC4 inhibitor project, dose response (AID 492987). In kind it is functional, cell-based.
For test [15], the target named is T1, Short transient receptor potential channel 4. Description: potency of mouse TRPC4 calcium flux blockers – cell-based, HEK293 TRPC4/mu-opioid, DAMGO stimulus, Fluo-4, dose response (AID 492994). In kind it is functional.
Test [16] addresses T2, Apoptotic protease-activating factor 1 (Homo sapiens, UniProt O14727).
T2 sequence (O14727 whole entry): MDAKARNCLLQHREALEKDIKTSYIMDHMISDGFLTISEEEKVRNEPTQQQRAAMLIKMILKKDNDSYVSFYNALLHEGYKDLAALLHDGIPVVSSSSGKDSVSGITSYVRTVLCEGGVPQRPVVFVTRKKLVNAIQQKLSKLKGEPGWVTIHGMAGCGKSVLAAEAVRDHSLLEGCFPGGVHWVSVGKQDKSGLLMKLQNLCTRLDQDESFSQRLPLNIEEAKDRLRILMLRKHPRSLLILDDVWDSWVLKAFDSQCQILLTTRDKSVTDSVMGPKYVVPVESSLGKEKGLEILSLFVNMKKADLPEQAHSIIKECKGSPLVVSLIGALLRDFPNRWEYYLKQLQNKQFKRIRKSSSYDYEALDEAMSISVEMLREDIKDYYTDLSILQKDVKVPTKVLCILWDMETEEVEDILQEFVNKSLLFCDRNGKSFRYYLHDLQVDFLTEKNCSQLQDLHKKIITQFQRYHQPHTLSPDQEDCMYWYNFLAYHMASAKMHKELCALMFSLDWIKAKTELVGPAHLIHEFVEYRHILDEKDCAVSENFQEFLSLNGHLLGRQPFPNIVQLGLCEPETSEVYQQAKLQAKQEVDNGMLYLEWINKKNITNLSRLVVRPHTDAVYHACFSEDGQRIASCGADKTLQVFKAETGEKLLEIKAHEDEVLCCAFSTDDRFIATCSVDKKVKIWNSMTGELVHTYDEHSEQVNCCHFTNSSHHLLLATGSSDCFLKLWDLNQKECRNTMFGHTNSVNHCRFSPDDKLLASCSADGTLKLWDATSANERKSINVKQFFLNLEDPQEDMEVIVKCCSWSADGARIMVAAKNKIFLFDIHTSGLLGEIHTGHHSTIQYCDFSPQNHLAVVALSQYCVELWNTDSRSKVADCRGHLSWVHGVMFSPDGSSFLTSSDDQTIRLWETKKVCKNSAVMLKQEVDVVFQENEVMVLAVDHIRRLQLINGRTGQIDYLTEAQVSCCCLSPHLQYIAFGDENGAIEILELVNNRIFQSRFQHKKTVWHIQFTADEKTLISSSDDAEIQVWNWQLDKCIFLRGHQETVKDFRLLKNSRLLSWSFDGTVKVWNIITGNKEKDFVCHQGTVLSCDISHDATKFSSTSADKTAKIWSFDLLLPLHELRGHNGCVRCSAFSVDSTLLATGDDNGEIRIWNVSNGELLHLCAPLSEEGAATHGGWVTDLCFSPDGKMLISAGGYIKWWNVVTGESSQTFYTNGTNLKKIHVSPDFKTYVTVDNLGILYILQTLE
Description: activation of Apaf-1 mediated apoptosis – fluorescent, uHTS hits, dose response (AID 588554). In kind it is functional.

Test [17] has as its target Induced myeloid leukemia cell differentiation protein Mcl-1 (Homo sapiens, UniProt Q07820). In kind it is functional.
In a further test the test system is Streptococcus. Put plainly: GAS UMAA2166 growth inhibition – luminescence, BacTiterGlo, counter-screen for streptokinase expression inhibitor project, dose response (AID 1915).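 Further: potency for reduction of bacterial viability or growth.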 In kind it is functional, organism-based.
In another test the target is Prothrombin (Bos taurus, UniProt P00735). Description: thrombin protease inhibitors – biochemical, fluorescence polarization, uHTS hits, dose response (AID 602369). In kind it is functional.
Test [18] relates to Streptococcus sp. 'group A'. Description: Streptococcus pyogenes SK(-)GAS viability under kanamycin – luminescence, BacTiterGlo, confirmation, counter-screen for streptokinase expression inhibitor project, dose response (AID 1900). In kind it is functional, organism-based.
The target of test [19] is 72 kDa type IV collagenase (Homo sapiens, UniProt P08253). Description: Dose Response validation of uHTS RPN11 inhibitor hits using a MMP-2 Fluorescence assay. In kind it is functional.
Sequence of 72 kDa type IV collagenase (P08253 whole entry): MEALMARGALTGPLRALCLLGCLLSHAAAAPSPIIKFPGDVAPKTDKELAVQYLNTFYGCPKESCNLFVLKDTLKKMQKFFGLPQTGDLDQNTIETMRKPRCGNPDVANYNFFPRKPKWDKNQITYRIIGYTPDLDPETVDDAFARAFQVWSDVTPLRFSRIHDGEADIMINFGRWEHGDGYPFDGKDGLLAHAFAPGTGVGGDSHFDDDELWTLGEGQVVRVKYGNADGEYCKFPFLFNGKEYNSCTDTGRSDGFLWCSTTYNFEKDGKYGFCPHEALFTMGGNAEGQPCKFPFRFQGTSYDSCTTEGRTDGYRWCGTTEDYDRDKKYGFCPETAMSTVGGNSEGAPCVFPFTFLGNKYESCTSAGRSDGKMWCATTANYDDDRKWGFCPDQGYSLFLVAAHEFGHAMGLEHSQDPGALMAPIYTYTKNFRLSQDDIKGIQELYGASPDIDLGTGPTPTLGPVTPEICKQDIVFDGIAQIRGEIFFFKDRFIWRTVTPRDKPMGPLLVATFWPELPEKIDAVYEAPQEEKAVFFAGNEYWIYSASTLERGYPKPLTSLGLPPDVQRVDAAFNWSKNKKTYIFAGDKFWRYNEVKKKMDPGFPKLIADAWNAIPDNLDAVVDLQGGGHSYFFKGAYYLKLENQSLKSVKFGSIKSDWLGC
The target of test [20] is 26S proteasome non-ATPase regulatory subunit 14 (Homo sapiens, UniProt O00487). Put plainly: inhibition of proteasome subunit RPN11 – biochemical, fluorescence polarization, uHTS hits, confirmation (AID 602368). In kind it is functional.
Sequence of 26S proteasome non-ATPase regulatory subunit 14 (O00487 whole entry): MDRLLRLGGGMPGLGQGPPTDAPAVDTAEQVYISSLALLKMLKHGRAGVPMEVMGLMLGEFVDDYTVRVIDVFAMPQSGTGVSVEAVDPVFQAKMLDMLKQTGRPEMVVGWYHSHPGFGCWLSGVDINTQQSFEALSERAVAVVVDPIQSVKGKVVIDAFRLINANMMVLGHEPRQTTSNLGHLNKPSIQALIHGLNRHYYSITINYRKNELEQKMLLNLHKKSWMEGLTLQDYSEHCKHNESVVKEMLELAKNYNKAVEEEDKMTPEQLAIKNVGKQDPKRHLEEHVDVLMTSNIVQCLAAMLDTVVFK
Test [21] concerns the target Dual specificity protein phosphatase 3 (Homo sapiens, UniProt P51452). Put plainly: SAR VHR1 Fluorescent Assay for In Vitro dose response studies Set 3. [Related pubchem assays (depositor defined):AID1654, AID1661, AID1878]. In kind it is functional.

Activity calls are given as the source filed them.

Sequence of Induced myeloid leukemia cell differentiation protein Mcl-1 (Q07820 whole entry): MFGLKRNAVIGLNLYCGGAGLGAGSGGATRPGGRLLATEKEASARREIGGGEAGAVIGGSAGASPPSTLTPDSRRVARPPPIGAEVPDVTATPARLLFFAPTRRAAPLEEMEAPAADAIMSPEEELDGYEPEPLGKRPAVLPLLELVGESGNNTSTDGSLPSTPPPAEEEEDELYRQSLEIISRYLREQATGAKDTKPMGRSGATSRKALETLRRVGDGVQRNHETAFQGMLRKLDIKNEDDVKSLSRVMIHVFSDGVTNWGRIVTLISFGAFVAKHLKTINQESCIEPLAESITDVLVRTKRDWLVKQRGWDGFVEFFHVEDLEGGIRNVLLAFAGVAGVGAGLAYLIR
Sequence of Short transient receptor potential channel 6 (Q61143 whole entry): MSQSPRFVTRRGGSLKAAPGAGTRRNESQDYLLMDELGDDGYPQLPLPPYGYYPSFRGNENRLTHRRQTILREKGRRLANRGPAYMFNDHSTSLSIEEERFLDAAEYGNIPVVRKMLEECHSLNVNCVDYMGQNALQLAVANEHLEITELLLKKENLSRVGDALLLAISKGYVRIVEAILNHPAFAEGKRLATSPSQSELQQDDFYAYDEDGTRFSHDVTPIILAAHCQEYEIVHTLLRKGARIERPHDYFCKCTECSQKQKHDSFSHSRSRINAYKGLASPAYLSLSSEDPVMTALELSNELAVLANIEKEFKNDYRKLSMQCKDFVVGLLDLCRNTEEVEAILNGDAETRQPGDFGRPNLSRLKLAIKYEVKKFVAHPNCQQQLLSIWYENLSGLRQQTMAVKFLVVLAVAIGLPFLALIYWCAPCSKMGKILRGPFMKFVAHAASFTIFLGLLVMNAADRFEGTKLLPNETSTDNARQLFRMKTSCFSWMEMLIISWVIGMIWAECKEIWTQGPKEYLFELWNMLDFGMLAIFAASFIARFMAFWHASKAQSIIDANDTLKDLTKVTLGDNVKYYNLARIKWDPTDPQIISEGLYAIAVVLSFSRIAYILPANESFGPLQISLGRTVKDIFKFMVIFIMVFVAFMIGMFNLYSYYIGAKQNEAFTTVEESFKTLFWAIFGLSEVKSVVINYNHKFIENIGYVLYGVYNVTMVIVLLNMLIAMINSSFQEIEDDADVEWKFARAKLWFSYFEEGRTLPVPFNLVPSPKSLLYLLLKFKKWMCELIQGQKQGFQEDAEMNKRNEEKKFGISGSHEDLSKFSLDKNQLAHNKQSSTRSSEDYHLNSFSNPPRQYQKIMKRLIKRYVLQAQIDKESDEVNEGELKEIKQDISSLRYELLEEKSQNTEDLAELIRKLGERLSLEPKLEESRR
Sequence of Dual specificity protein phosphatase 3 (P51452 whole entry): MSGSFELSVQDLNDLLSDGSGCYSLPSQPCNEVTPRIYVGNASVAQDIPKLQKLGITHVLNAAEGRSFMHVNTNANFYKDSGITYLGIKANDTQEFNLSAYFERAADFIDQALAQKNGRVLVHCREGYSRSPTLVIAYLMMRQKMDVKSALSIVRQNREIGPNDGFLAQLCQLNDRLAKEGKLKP

Consider `CC1CCN(c2nc(NCc3ccco3)nc(N)c2[N+](=O)[O-])CC1`, for which the results for the CC50 in the test with MDCK [1] and in the test with Vero were 11.4 µM (active) and > 40 µM (active), respectively. Moreover, the IC50 (in general, the concentration needed to halve the response being measured) with MDCK [2] was 2.57 µM (active).
Take `COc1cc(OC)c(S(=O)(=O)Nc2ccccc2C(=O)O)cc1S(=O)(=O)Nc1ccccc1C(=O)O`: on Keap1/Nrf2, the AC50 (as a rule, the concentration giving half of the maximal activity seen) is > 52 µM (inactive).
Consider `Cc1ccc(C(=O)C2=C(O)C(=O)N(Cc3ccco3)C2c2cccc(Cl)c2)o1` (configuration not stated), for which, on NS3, the IC50 is 5.36 µM (active). Also, the CC50 (usually the concentration that lowers cell viability or growth by half) in test [3] is > 100 µM (inactive).
As to `CC(C)Sc1nc(SCC(=O)NCc2ccco2)c2c3c(sc2n1)COC(C)(C)C3`, the AC50 in test [4] is > 52 µM (inactive). In addition, the IC50 in [5] is 8.37 µM (active).
As to `Cc1ccccc1NC(=O)CCS(=O)(=O)c1ccc(Br)cc1`, in test [6], the EC50 (commonly the midpoint of the concentration-response curve) was 11.4 µM (active).
With `O=C(C1CC1)N1CCN(c2ccnc3cc(Cl)ccc23)CC1`, the concentration at half-maximal activity (AC50) in the test on Candida albicans [7] is 12.4 µM (active); in the test with Candida albicans [8], 3.25 µM (active); with NIH3T3, 1.7 µM (active).
For the compound `c1cncc(CNc2nccc(-c3ccc4c(c3)OCO4)n2)c1`, the AC50 was 0.00791 µM (active) in test [9] and 14.3 µM (active) in [10].
As to `COc1ccc(S(=O)(=O)N(C)C[C@@H]2Oc3c(NC(=O)Nc4cccc5ccccc45)cccc3C(=O)N([C@@H](C)CO)C[C@@H]2C)cc1`, the AC50 is 48 µM (active) in the test with INS1 [11] and 37.6 µM (active) in the test with INS1 [12].
Consider `Cc1ccc2nc(N3CCCCC3)cc(C)c2c1`, for which the IC50 was 5.49 µM (active) in test [13], 8.58 µM (active) in test [14] and 10.2 µM (active) in test [15].
Turning to `O=C(O)CCCN1C(=O)/C(=C\c2ccc(-c3nc4ccccc4s3)o2)SC1=S`, the half-maximal effective concentration (EC50) is 5.12 µM (active) in test [16], 7.32 µM (active) in the test on Streptococcus and 3.67 µM (active) in [18]. The IC50 in test [17] is 1.38 µM (active); at Prothrombin, 70.3 µM (active); in test [19], > 100 µM (inactive); in [20], 5.31 µM (active).
Consider `COc1cccc2sc(NC(=O)c3ccc(C#N)cc3)nc12`, for which, in test [21], the IC50 is 57.6 µM (active).
